Measured values: patent US20230347344A1, “COMBINATION OF PHARMACOLOGICAL AND MICROFLUIDIC FEATURES FOR IMPROVED PLATELETS PRODUCTION” (HEMOSTOD SA, priority 2015, published 2023)

Tests used:
[1] = system: platelets produced from megakaryocytes; assay: Flow cytometry analysis of platelet receptors (CD41, CD42b, CD61, CD49b) on produced platelets; format: cell-based, human; conditions: for proportion of platelets expressing CD42b receptor: compound in megakaryocyte suspension during 2 h perfusion vs without (10 μM ROCK inhibitor; 25 μM GM6001); for proportion of CD41+/CD42b+ platelet: compound during 2 hours of perfusion, without or with previous introduction during culture stage
Description: (§1) CD34^+ cells were isolated from human umbilical cord blood (UCB) by an immunomagnetic technique (Miltenyi Biotec, Paris, France) as previously reported (see Poirault-Chassac et al, “Notch/Delta4 signaling inhibits human megakaryocytic terminal differentiation”, Blood, vol. 116, no 25, p. 5670-5678, 2010). These blood samples were obtained after informed consent and approval from our Institute Ethics Committee and in accordance with the Declaration of Helsinki. CD34^+ cells were cultured in a humid atmosphere at 37° C. in 5% CO2 in complete medium consisting of Iscove modified Dulbecco medium (IMDM; Gibco Life Technologies, Saint-Aubin, France) supplemented with 15% BIT 9500 serum substitute (Stem Cells Technologies, Grenoble, France), α-monothioglycerol (Sigma-Aldrich, Saint-Quentin Fallavier, France) and liposomes (phosphatidyl-choline, cholesterol and oleic acid; SigmaAldrich). Human recombinant stem cell factor (SCF, 20 ng/mL; Miltenyi Biotec) and thrombopoietin peptide agonist AF13948 (TPO, 50 nM) (see Dunois-Lardé et al, “Exposure of human megakaryocytes to high shear rates accelerates platelet production”, Blood, vol. 114, no 9, p. 1875-1883, 2009) were added once at day 0 to the culture medium followed by addition of 20 nM TPO without SCF at day 5. Mature megakaryocytes are obtained after 12-14 days of culture. Removal of platelets formed during culture and immediately prior to shear exposure was performed by means of a BSA gradient according to the methods reported in (Robert A, Cortin V, Gamier A, Pineault N. Megakaryocyte and platelet production from human cord blood stem cells. Methods Mol Biol. 2012; 788: 219-47). The concentration was then adjusted to 200 000 megakaryocytes/mL. 10 μM ROCK inhibitor (Y27632, Sigma Aldrich, Saint Quentin Fallavier, France) may be added to the culture of megakaryocytes at day 8 of culture. Addition of 10 μM ROCK inhibitor was performed before introducing megakaryocytes suspension into the inlet chamber of the microfluidic device. 6.25 μM nicotinamide (N0636, Sigma Aldrich, Saint Quentin Fallavier, France) was added to the culture of megakaryocytes at day 8 of culture. Addition of 6.25 μM nicotinamide was performed before introducing megakaryocyte suspension into the inlet chamber of the microfluidic device. 20 μM blebbistatin (203390, Calbiochem) was added to the culture of megakaryocytes at day 8 of culture. Addition of 20 μM blebbistatin was performed before introducing megakaryocyte suspension into the inlet chamber of the microfluidic device. 10 μM latrunculin-A (sc202691, Santa Cruz Biotechnology) was added to the culture of megakaryocytes at day 8 of culture. Addition of 10 μM latrunculin-A was performed before introducing megakaryocyte suspension into the inlet chamber of the microfluidic device. 25 μM GM6001 (ab120845, Abcam) was added to the culture of megakaryocytes at day 8 of culture. Addition of 25 μM GM6001 was performed before introducing megakaryocyte suspension into the inlet chamber of the microfluidic device
Platelet production in the microfluidic device of geometry 2 was compared to control samples, consisting of platelet production from twenty-four hours static condition without the microfluidic chip. Expression of CD41 and CD42 antigens was characterized using a flow cytometer BD Fluorescence Accuri C6 ® (BD Biosciences, Le Pont de Claix, France). Platelets were incubated with fluorescein isothiocyanate (FITC)-conjugated anti-human CD41 (αIIb), R-phycoerythrin (PE)-conjugated anti-human CD42b (GPIbα) (both from Beckman Coulter, Villepinte, France) and FITC-conjugated anti-human activated αIIbb3 (BD Biosciences) during 15 minutes at 22° C., Controls were performed using FITC mouse IgG1 (Beckman Coulter), PE mouse IgG1 (Beckman Coulter). Single color flow cytometry analysis of platelet receptors was performed using the GP screen assay (Biocytex, Marseille, France). […]

megakaryocytes [2] = assay: Megakaryocyte capture and elongation in the microfluidic device (surface density of captured and elongated megakaryocytes); format: cell-based, human; conditions: for elongation process and beads-on-a-thread structure formation: compound added to megakaryocyte suspension during perfusion (10 μM ROCK inhibitor; 6.25 μM nicotinamide)
Description: as §1
All the devices are composed of 16 parallel channels organized in a serpentine shape (FIG. 16). The channels were textured on the straight parts (13.2 cm long) and patterned with the parameters: r=15 μm, H=50 μm, H/h=1.
The microfluidic chip was set on the stage of an inverted microscope (DMI6000 B, Leica Microsystems GmbH, Germany). A computer assisted motorized stage control was used to record positions along the channel length. We recorded observation field positions and alternated recording images between them along the experiment time. Differential interference contrast objective was used to record movies and images between 10× and 40×. A CMOS high-speed camera (Fastcam SA3, Photron, USA) was used to record images at frequencies from 0.5 to 1500 Hz.
Surface captured cells were counted manually from the recorded channel images, and cells in suspension were counted with a hematocytometer.

[3] = system: platelets produced from megakaryocytes; assay: Activation of produced platelets by TRAP-6 (PAC1 binding, fibrinogen adhesion, tubulin/actin immunofluorescence); format: cell-based, human
Description: Image acquisition was performed with an Axio Observer microscope (Zeiss) at 40×1.6-fold magnification with a QIClick-F-CLR-12 Digital CCD Camera (Q Imaging). Platelets are adherent to fibrinogen.
FIG. 8 is a picture showing two colors flow cytometry analysis of platelets receptors with or without activation of the CD41/CD61 receptor by the agonist peptide of the PAR-1 thrombin receptor (TRAP6). (A) Histogram indicates, within the platelet gate, the % of PAC-1/CD42b positive elements before (black bars) or after (gray bars) TRAP-6 activation of platelets produced in the microfluidic device from megakaryocytes suspension in the absence (+/+2 h) or the presence (+/+2 h Ri) of ROCK inhibitor (Ri). […] No Ri was added during the culture stage. n=1.
Platelet production in the microfluidic device of geometry 2 was compared to control samples, consisting of platelet production from twenty-four hours static condition without the microfluidic chip. Expression of CD41 and CD42 antigens was characterized using a flow cytometer BD Fluorescence Accuri C6 ® (BD Biosciences, Le Pont de Claix, France). […] The number of antigenic sites is determined by converting the fluorescence intensity into corresponding numbers of monoclonal antibodies bound per platelet based on a calibrated bead standard curve. […]

megakaryocytes [4] = assay: Platelet release in the microfluidic device after two hours of perfusion, hemocytometer counting; format: cell-based, human; conditions: compound in suspension during 2 h perfusion stage, absent during culture stage (10 μM ROCK inhibitor; 6.25 μM nicotinamide)
Description: CD34^+ cells were isolated from human umbilical cord blood (UCB) by an immunomagnetic technique (Miltenyi Biotec, Paris, France) as previously reported (see Poirault-Chassac et al, “Notch/Delta4 signaling inhibits human megakaryocytic terminal differentiation”, Blood, vol. 116, no 25, p. 5670-5678, 2010). These blood samples were obtained after informed consent and approval from our Institute Ethics Committee and in accordance with the Declaration of Helsinki. CD34^+ cells were cultured in a humid atmosphere at 37° C. in 5% CO2 in complete medium consisting of Iscove modified Dulbecco medium (IMDM; Gibco Life Technologies, Saint-Aubin, France) supplemented with 15% BIT 9500 serum substitute (Stem Cells Technologies, Grenoble, France), α-monothioglycerol (Sigma-Aldrich, Saint-Quentin Fallavier, France) and liposomes (phosphatidyl-choline, cholesterol and oleic acid; SigmaAldrich). Human recombinant stem cell factor (SCF, 20 ng/mL; Miltenyi Biotec) and thrombopoietin peptide agonist AF13948 (TPO, 50 nM) (see Dunois-Lardé et al, “Exposure of human megakaryocytes to high shear rates accelerates platelet production”, Blood, vol. 114, no 9, p. 1875-1883, 2009) were added once at day 0 to the culture medium followed by addition of 20 nM TPO without SCF at day 5. Mature megakaryocytes are obtained after 12-14 days of culture. […]

megakaryocytes [5] = conditions: cited from earlier work; for megakaryocyte ploidy / polyploidization: culture conditions, literature
[6] = 10 μM ROCK inhibitor in suspension during perfusion, absent during culture stage, count after 35 min of perfusion
[7] = channels coated at 40 μg·mL^−1, t=35 min, ROCK inhibitor in culture (day 8) and perfusion

Compound: CNC(=O)[C@H](Cc1c[nH]c2ccccc12)NC(=O)[C@@H](CC(=O)NO)CC(C)C [GM6001, N-[(2R)-2-(hydroxamidocarbonylmethyl)-4-methylpentanoyl]-L-tryptophan methylamide]
- proportion of platelet CD42b+ ([1]; GM6001 during the culture as well as during the 2 hours perfusion stage): increased
- proportion of platelets expressing CD42b receptor [1]: higher

Compound: O=S(=O)(c1cccc2c(O)nccc12)N1CCCNCC1 [ROCK inhibitor, 1-(1-Hydroxy-5-isoquinolinesulfonyl)homopiperazine]
- captured megakaryocytes density, ROCK inhibitor added vs not added (megakaryocytes [2]; [6]): 1.42±0.13 fold
- elongated megakaryocytes density, ROCK inhibitor added vs not added (megakaryocytes [2]; [6]): 2.98±0.28 fold
- elongation process and beads-on-a-thread structure formation (megakaryocytes [2]): No differences
- tubulin conformation of produced platelets upon TRAP-6 stimulation ([3]; ROCK inhibitor during 2 h perfusion, platelets adherent to fibrinogen, FIG. 7): tubulin conformation typical of a transient activation
- conformation of the αIIbβ3 receptors (PAC1 binding) upon TRAP-6 stimulation ([3]; platelets from suspension with ROCK inhibitor, FIGS. 8 and 9): activated conformation
- characteristics of produced platelets (CD61, CD42b, CD49b receptor density) vs platelets isolated from blood ([1]; ROCK inhibitor during 2 h perfusion, FIG. 6): comparable to those of natural platelets
- proportion of platelets expressing CD42b receptor [1]: higher
- platelet release vs suspension without compound (megakaryocytes [4]): significant higher platelet release

Compound: Cc1ccc2c(c1)C(=O)C1(O)CCN(c3ccccc3)C1=N2 (centres unmarked) [blebbistatin, 1-Phenyl-1,2,3,4-tetrahydro-4-hydroxpyrrolo[2,3-b]-7-methylquinolin-4-one]
- proportion of CD41+/CD42b+ platelet [1]: higher

Compound: C/C1=C/C(=O)O[C@@H]2C[C@@H](CC[C@H](C)/C=C\C=C\CC1)O[C@@](O)([C@@H]1CSC(=O)N1)C2 [latrunculin, Latrunculin A]
- megakaryocyte ploidy / polyploidization (megakaryocytes [5]): increase
- megakaryocyte apoptosis activation (megakaryocytes [5]; literature (Avanzi et al)): increase
- proportion of CD41+/CD42b+ platelet [1]: higher

Compound: NC(=O)c1cccnc1 [nicotinamide, pyridine-3-carboxamide]
- elongation process and beads-on-a-thread structure formation (megakaryocytes [2]): No differences
- megakaryocyte ploidy / polyploidization (megakaryocytes [5]): increases
- proportion of CD41+/CD42b+ platelet [1]: higher
- platelet release vs suspension without compound (megakaryocytes [4]): higher platelet release

Compound: VWF: Human von Willebrand factor, used as surface coating of the platelet production channel
- captured megakaryocytes density, VWF coating vs BSA coating (megakaryocytes [2]; [7]): 5.86±1 fold
- elongated megakaryocytes density, VWF coating vs BSA coating (megakaryocytes [2]; [7]): 7.72±1.32 fold
